In the NIST ThermoML archive (doi:10.1007/s10765-011-1087-7):
Numbers after ± are expanded uncertainties.

What was measured:
[1] = xn = mol fraction of the nth substance listed; details: 308.15 K, 101 kPa, Liquid; for speed of sound: Pulse-echo method
[2] = refractive index (Na D-line) (dimensionless); xn = mol fraction of the nth substance listed; details: 101 kPa, Liquid

CCCCCCC(C)O (centres undefined) [2-octanol] + Clc1ccccc1Cl
[1]
Details | mass density [kg/m3] | speed of sound [m/s] | viscosity [mPa·s]
x2 = 0.0721 | 833.8 ± 0.54 | 1266.6 ± 1.3 | 3.524 ± 0.12
x2 = 0.1124 | 848.27 ± 0.52 | 1264 ± 1.3 | 3.227 ± 0.11
x2 = 0.1868 | 875.95 ± 0.47 | 1260.1 ± 1.3 | 2.763 ± 0.093
x2 = 0.2615 | 905.03 ± 0.41 | 1256.2 ± 1.3 | 2.38 ± 0.081
x2 = 0.3223 | 929.69 ± 0.37 | 1253.3 ± 1.3 | 2.121 ± 0.073
x2 = 0.3758 | 952.17 ± 0.33 | 1250.8 ± 1.3 | 1.933 ± 0.067
x2 = 0.4495 | 984.42 ± 0.27 | 1247.6 ± 1.3 | 1.7 ± 0.06
x2 = 0.512 | 1013.02 ± 0.27 | 1245.4 ± 1.3 | 1.532 ± 0.054
x2 = 0.5923 | 1051.57 ± 0.35 | 1242.9 ± 1.3 | 1.362 ± 0.049
x2 = 0.6557 | 1083.59 ± 0.42 | 1241.5 ± 1.3 | 1.243 ± 0.045
x2 = 0.7312 | 1123.75 ± 0.5 | 1240.5 ± 1.3 | 1.157 ± 0.042
x2 = 0.797 | 1160.72 ± 0.58 | 1240.4 ± 1.3 | 1.132 ± 0.041
x2 = 0.8672 | 1202.46 ± 0.67 | 1241.5 ± 1.3 | 1.133 ± 0.041
x2 = 0.9481 | 1253.92 ± 0.78 | 1243.9 ± 1.3 | 1.14 ± 0.042

refractive index, [2]
Details | 298.15 K | 303.15 K | 308.15 K
x2 = 0.0721 | 1.4308 ± 0.0012 | 1.4293 ± 0.0012 | 1.4274 ± 0.0012
x2 = 0.1124 | 1.4352 ± 0.0012 | 1.4336 ± 0.0012 | 1.4319 ± 0.0012
x2 = 0.1868 | 1.443 ± 0.0012 | 1.4416 ± 0.0012 | 1.4399 ± 0.0012
x2 = 0.2615 | 1.4507 ± 0.0012 | 1.4492 ± 0.0012 | 1.4476 ± 0.0012
x2 = 0.3223 | 1.4569 ± 0.0012 | 1.4552 ± 0.0012 | 1.4534 ± 0.0012
x2 = 0.3758 | 1.4624 ± 0.0012 | 1.4604 ± 0.0012 | 1.4587 ± 0.0012
x2 = 0.4495 | 1.4698 ± 0.0012 | 1.4678 ± 0.0012 | 1.4658 ± 0.0012
x2 = 0.512 | 1.4763 ± 0.0012 | 1.4741 ± 0.0012 | 1.4718 ± 0.0012
x2 = 0.5923 | 1.4848 ± 0.0012 | 1.4828 ± 0.0012 | 1.48 ± 0.0012
x2 = 0.6557 | 1.492 ± 0.0012 | 1.4902 ± 0.0012 | 1.4873 ± 0.0012
x2 = 0.7312 | 1.5014 ± 0.0012 | 1.4997 ± 0.0012 | 1.4967 ± 0.0012
x2 = 0.797 | 1.5103 ± 0.0012 | 1.509 ± 0.0012 | 1.5059 ± 0.0012
x2 = 0.8672 | 1.521 ± 0.0012 | 1.52 ± 0.0012 | 1.5168 ± 0.0012
x2 = 0.9481 | 1.5353 ± 0.0012 | 1.5342 ± 0.0012 | 1.531 ± 0.0012
